The values below come from patent US20160138077A1, “MONITORING AND ASSESSING DEACETYLASE ENZYME ACTIVITY” (THE GENERAL HOSPITAL CORPORATION, priority 2013, published 2016).

Assay [1] has as its target T1, Sirtuin 1 (Homo sapiens, UniProt Q96EB6).
T1 construct: purchased Cayman Chemicals
T1 sequence (Q96EB6 1-747): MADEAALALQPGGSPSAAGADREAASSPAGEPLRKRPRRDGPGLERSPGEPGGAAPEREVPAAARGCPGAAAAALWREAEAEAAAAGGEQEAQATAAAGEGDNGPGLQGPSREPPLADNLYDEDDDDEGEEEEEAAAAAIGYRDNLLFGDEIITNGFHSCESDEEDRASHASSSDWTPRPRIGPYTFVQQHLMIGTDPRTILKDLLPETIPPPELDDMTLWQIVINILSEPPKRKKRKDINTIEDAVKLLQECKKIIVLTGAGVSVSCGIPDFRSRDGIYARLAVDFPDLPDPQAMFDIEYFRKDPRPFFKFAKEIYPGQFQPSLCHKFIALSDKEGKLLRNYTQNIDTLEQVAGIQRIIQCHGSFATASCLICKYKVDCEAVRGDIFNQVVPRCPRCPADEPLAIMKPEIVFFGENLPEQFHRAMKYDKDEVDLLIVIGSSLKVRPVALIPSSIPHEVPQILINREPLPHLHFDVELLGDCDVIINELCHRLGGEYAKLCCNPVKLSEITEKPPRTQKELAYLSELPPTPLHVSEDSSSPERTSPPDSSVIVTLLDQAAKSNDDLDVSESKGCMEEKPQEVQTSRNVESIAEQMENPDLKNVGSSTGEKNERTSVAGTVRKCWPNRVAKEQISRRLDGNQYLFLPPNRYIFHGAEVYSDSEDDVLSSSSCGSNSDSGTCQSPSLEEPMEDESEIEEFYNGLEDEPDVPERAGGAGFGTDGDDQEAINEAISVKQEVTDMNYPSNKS
The assay can be described thus: LCMS assay of sirtuin enzymatic action on HP-1. In kind it is biochemical. As to conditions: Sirtuin 1, −SAHA; 5 μM HP-1, 12 hours at 37° C. Here is the method:
(§1) The enzymatic cleavage of HP-1 was analyzed by performing LCMS assays with sirtuin 1 and 3 (Cayman Chemicals) and the proteases chymotrypsin (Sigma-Aldrich), cathepsin (EMD Millipore), and pepsin* (Sigma-Aldrich). Solutions containing (i) vehicle with DMSO in HDAC buffer, (ii) 5 μM HP-1 in HDAC buffer, and (iii) 5 μM HP-1 and the enzyme in HDAC buffer were incubated for 12 hours at 37° C. Following incubation, a 20 μL aliquot of supernatant from each sample was analyzed by LCMS. Deacetylation of HP-1 was investigated by screening for the DHP-1 (M+H)^+ ion following positive electrospray ionization. All assay samples were analyzed in triplicate. […]
(§2) HP-1 was not altered by sirtuins 1 and 3 or the proteases chymotrypsin, cathepsin and pepsin, as determined by LCMS. […] For Cathepsin B, the cleavage of the enzyme substrate, z-RR-pNA (Santa Cruz Biotechnology, Dallas, Tex.) was monitored using a Wallac EnVision 2103 Multilabel fluorescence plate reader (PerkinElmer, Waltham, Mass.) with a 405 nm excitation filter, a 406 nm emission filter, and a gain of 150. The cleavage of the pepsin substrate, Ac-Phe-Tyr-OH (Chem-Impex Inc.), was monitored by LCMS at pH 4. […]

Assay [2] deals with T2, Sirtuin 3 (Homo sapiens, UniProt Q9NTG7).
T2 construct: purchased Cayman Chemicals
T2 sequence (Q9NTG7 1-399): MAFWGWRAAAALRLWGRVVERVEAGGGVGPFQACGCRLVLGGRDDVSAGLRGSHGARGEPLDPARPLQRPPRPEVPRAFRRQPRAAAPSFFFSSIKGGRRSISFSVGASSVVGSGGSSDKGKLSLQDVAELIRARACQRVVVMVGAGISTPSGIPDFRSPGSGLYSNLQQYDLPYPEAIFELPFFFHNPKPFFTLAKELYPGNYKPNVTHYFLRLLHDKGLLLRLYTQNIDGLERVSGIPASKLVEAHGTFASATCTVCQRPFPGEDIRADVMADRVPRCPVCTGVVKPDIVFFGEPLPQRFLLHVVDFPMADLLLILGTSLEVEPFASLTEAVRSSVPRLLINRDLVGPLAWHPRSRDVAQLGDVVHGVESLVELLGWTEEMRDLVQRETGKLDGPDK
In words: LCMS assay of sirtuin enzymatic action on HP-1. In kind it is biochemical. As to conditions: Sirtuin 3, −SAHA; 5 μM HP-1, 12 hours at 37° C. Here is the method: as §1, §2

SMILES strings stand for the structures.

`CC(=O)NC=CCCCCNC(=O)CCCCCNc1ccc([N+](=O)[O-])c2nonc12` [HP-1]: the “% HP-1 to DHP-1” value in assay [1] and in assay [2] was 0% each time.
